Here are results for two compounds from patent publication US10596118B2, “Solid dispersions” (Shionogi Inc., priority 2015, dated 2020).

Structures are written as SMILES. In brackets after ≈: the same amount, converted by molar mass.

Usually solubility stands for how much of the substance goes into solution per volume.

A short description of data set [1]: Solubility by shake flask method with HPLC analysis. Particulars: thermodynamic from solid. On the procedure: Solubility measurements of the solid dispersions and physical mixtures were performed using a shake flask method. Individual test samples comprising about 5 mg ospemifene, 30 mg of each physical mixture, or 30 mg of each solid dispersion, were mixed with 20 mL of an aqueous media (either water alone, 0.1N HCl, or a buffered aqueous solution comprising 50 mM phosphate, pH 6.8). The sample was agitated manually for 3 hours. Following mixing, a 1.5 mL sample was withdrawn to a micro-centrifuge tube and centrifuged at 12,000 rpm for 10 min. About 1 mL of supernatant was then transferred to a HPLC vial for HPLC analysis.
The solubilities of ospemifene solid dispersions, the control physical mixtures, and ospemifene alone were determined by HPLC in water, 0.1 N HCl, or 50 mM pH 6.8 buffer using a shake flask method, as described above.

A short description of data set [2]: physchem. Particulars: organic solvent or mixture, thermodynamic from solid. The source says: In developing methods of evaluating the solubility of the various compositions produced in these studies, a common solvent was selected that was capable of dissolving both ospemifene and each of the hydrophilic carriers being evaluated. […] Thus, an incremental solvent addition method was used to estimate the solubility in methanol and ethanol co-solvent mixture.

Data set [3] is described as follows: Micro dissolution in simulated GI fluids (FaSSIF, FeSSIF) and pH 6.8 phosphate buffer. Particulars: for solubility in FeSSIF relative to FaSSIF: FeSSIF versus FaSSIF. The source says: To investigate the in-vivo absorption process of ospemifene in the GI tract, a dissolution method using simulated GI fluids (FaSSIF and FeSSIF) was developed to simulate drug dissolution in-vivo. The abbreviation “FaSSIF” stands for fasted state simulated intestinal fluid, while the abbreviation “FeSSIF” stands for fed state simulated intestinal fluid. […] FaSSIF and FeSSIF media are commercially available from Biorelevant and were used according to the manufacturer's instructions.
Micro dissolution was conducted in a centrifuge vial containing 1.5 mL of dissolution medium (either FaSSIF or FeSSIF) at room temperature. […] The vials were centrifuged at 30 min, 1, 2 and 3 hour(s) at 14,000 rpm for one minute and 50 μL of supernatant was transferred to an HPLC vial and diluted with 50 μL acetonitrile and assayed by HPLC.
The detector was set at 235 nm. Two mobile phases were used, mobile phase A and mobile phase B. Mobile phase A was 800/200/40 (v/v/v) deionized water/acetonitrile/tetrahydrofuran and mobile phase B was 100% acetonitrile.
For drug content analysis, the same HPLC column and mobile phases were used but the flow rate of the mobile phases was 1 ml/min, the injection volume was 7 μL and the gradient program was as follows: […]

The conditions of data set [4]: poor water solubility and high permeability.
Data set [5] is described as follows: physchem. Particulars: water or buffered solutions, aqueous buffer.
The conditions of data set [6]: oral administration of a 60 mg dose; cited from earlier work.
The conditions of data set [7]: Sun et al., 2012; cited from earlier work.

As to `OCCOc1ccc(/C(=C(/CCCl)c2ccccc2)c2ccccc2)cc1` [Ospemifene (OSP), ospemifene], the solubility at 3 h in data set [1] (pH 6.8, aqueous buffer) is under 0.03 µg/mL; in data set [1] (simulated gastric fluid), under 0.03 µg/mL; in data set [1] (water), 0.04 µg/mL (≈ 0.106 µM). Moreover, the solubility in data set [2] (solubility in ethanol, ethanol) was about 57000 µg/mL (≈ 150000 µM); in data set [2] (solubility in methanol, methanol), about 67000 µg/mL (≈ 177000 µM); in data set [3] (fessif, thermodynamic from solid), 45 µg/mL (≈ 119 µM); in data set [3] (pH 6.8, aqueous buffer), under 10 µg/mL; in data set [5], under 0.3 µg/mL. Besides, the “time the amount of drug in solution remains relatively stable” value in data set [3] (FeSSIF and FaSSIF) was 2 to 3 h. Also, the “solubility in FeSSIF relative to FaSSIF” value is “about 4 fold” in data set [3] (listed as micronized ospemifene) and 2-3 fold in data set [3] (listed as ospemifene alone). In data set [3] (fassif, thermodynamic from solid), this compound had a solubility at 2 h of 10 µg/mL (≈ 26.4 µM). In data set [4], the BCS class result is recorded as “BCS class II”. Also, the “share of total dose eliminated via the fecal route” value in data set [6] is 75%.
For the compound `COc1ccc2c(c1)c(CC(=O)O)c(C)n2C(=O)c1ccc(Cl)cc1` [indomethacin], in data set [7], the “maximum solubility enhancement observed with HPMCAS or PVP” value was 9 fold.
